Article PMC4349624, “In vitro synergistic effect of fluoroquinolone analogues in combination with artemisinin against Plasmodium falciparum; their antiplasmodial action in rodent malaria model” (Malaria Journal, 2015)
≈ marks a conversion by molar mass, not a printed value. Where “and” joins values, the source holds several entries; their conditions need not be identical. Identical values can stand only once. Entries after “also recorded” stand apart in the source; their conditions may differ. Like-named read-outs stand apart in the source and are kept apart here.

Experiments:
[1] = tested on: 3D7 strain of P. falciparum; details: cited from earlier work
[2] = tested on: Plasmodium falciparum 3D7 strain; assay: antiplasmodial interaction assay, fixed-ratio combination isobologram method with artemisinin; format: cell-based; details: for Mean ƩFIC ± SD: combination with artemisinin, over the fixed-ratio combinations; for antiplasmodial interaction with artemisinin (in words): four fixed-ratio combinations, in vitro; for Drug B Mean FIC50 ± SE: n = 3
Experimental: Stock culture of malaria parasite P. falciparum 3D7 strain (chloroquine sensitive) was continuously maintained in vitro using a CO2 incubator under low-oxygen concentration (3%) and high carbon dioxide atmosphere (4%) along with nitrogen (93%), incubated at a temperature of 37°C. The parasites were maintained on O^+ human red blood cells suspended in a complete culture medium. Each litre of RPMI-1640 aqueous culture medium was prepared with 10.4 g of powdered RPMI-1640 (with glutamine but without sodium bicarbonate), 5.94 g of HEPES buffer, 1 g of dextrose and 40 mg of gentamicin. Complete medium was constituted just before use by adding sterile 5% sodium bicarbonate at the rate of 4 ml per 96 ml, and supplemented with 10% (v/v) pooled O^+ human serum. Infected erythrocytes were suspended in this culture media initiated at a haematocrit value of 5% and parasitemia was kept between 2 and 4% with sub-culturing done beyond 5%. Medium was changed once a day and percentage parasitemia was monitored using Giemsa stained slides.
Artemisinin (Sigma Aldrich, USA) was prepared in DMSO to get the stock solution of 1 mg/ml strength. Compounds 10, 12 and 18 were synthesized according to the procedure described by Dixit et al. and each compound was made to strength of 1 mg/ml stock solution in DMSO. The stock solutions were diluted on the day of experiment to get the desired concentrations for each compound. The highest amount of DMSO in diluted concentrations was 0.125%, and had no effect on parasite growth.
In each combination assay, two compounds (Compound A, artemisinin and Compound B, a fluoroquinolone derivative or norfloxacin) were combined in four fixed ratios (4:1, 3:2, 2:3, and 1:4).
Compound dilutions of each combination solution were made in sterile, flat-bottomed, 96-well tissue culture plates as described by Fivelman et al.. Six times two-fold serial dilution was done for each combination in triplicate. Each well contained a total volume of 200 μl of complete culture medium with or without compound and pre-synchronized infected red blood cells (1% parasitemia at 2.5% haematocrit). Control cultures (without compound) were maintained on the same plate in triplicate. Two 96-well plates (for six combinations) were used for each combination experiment. The plates were stacked in a CO2 incubator and incubated at 37°C for 48 hours.
After 48-hour incubation, thin blood smear slides were prepared, air dried, methanol fixed, and stained in Giemsa solution for 40 min. After staining, slides were removed from coupling jar, washed in running tap water and air dried. The Giemsa-stained slides were examined for counting the number of parasites in random adjacent microscopic fields, equivalent to about 4,000 erythrocytes at 1,000 × magnification. Per cent parasitemia was calculated. Reproducibility of counts was checked by two other readers to maintain the quality control.
For each combination assay, IC50 was calculated from two sets of concentration response graphs, each containing compound alone curve and four combination curves.
ƩFIC <1 represents synergism, ƩFIC > = 1 and <2 represents additive interaction, ƩFIC > = 2 and <4 represents slight antagonism while ƩFIC > = 4 represents marked antagonism.

BALB/c mice = assay: LD50 test; format: in vivo; details: ip
Experimental: Therapeutic Index (TI) values were determined by the formula: TherapeuticIndexTI=MedianlethaldoseLD50/MedianeffectivedoseED50

host cell = tested on: host cell; parameters: method as in PMID 22424611; details: read-out: in vitro host cell cytotoxicity IC50; cited from earlier work
Plasmodium berghei ANKA = assay: Peters' four-day suppressive test in BALB/c mice; format: in vivo; details: ip, once daily days 0 to 3, BALB/c mice; n = 5
Text: Evaluation of the curative potential of the fluoroquinolone derivatives was done using the method described by Ryley and Peters, 1970 (rodent malaria four-day suppressive test; Peters’ four-day suppressive test). Rodent malaria parasite Plasmodium berghei ANKA was used.
[…] BALB/c inbred albino mice (25–30 g) of the male sex were obtained from the Animal Facility Centre of the Department of Zoology, University of Delhi. The animals were fed ad libitum with standard feed and had free access to water. They were maintained under standard conditions of humidity, temperature (25°C) and 12 hours light/darkness cycles. The animals were acclimatized for two weeks before the commencement of the study and were ensured to exclude all zoonotic agents.
Day 0: Heparinized blood was withdrawn from an infected donor mouse with approximately 25-30% parasitemia, and diluted in 1x PBS to 10^8 parasitized erythrocytes per mL. An aliquot of 0.2 mL (=2 × 10^7 parasitized erythrocytes) of this suspension was injected intraperitoneally (ip) into experimental groups of five mice each. One to three hours post-infection, the experimental groups were treated with varying doses of each of the test compounds (0.5, 1, 10, 25 mg/kg BW) by the ip route. Each compound was made to strength of 5 mg/ml stock solution in 10% DMSO and administered according to desired concentration and individual body weight. Artemisinin was given to the standard drug group and 0.2 mL of normal saline to the negative control group.
Day 1, 2 and 3: 24 hours, 48 hours and 72 hours post-infection, the experimental groups of mice were treated again with the same dose and by the same route as on day 0.
Day 4: 24 hours after the last treatment (i.e., 96 hours post-infection), blood was drawn from the tail region of mice and smears were prepared. […] Differences in parasitemia percentage between treated groups and untreated animals were analysed by a one-way ANOVA test using IBM SPSS Statistics 16.0 and differences considered significant if P < 0.05. […] Percentinhibitionactivity=100–Meanparasitemia/control×100
Untreated control mice typically died approximately one week after infection. […] The mean survival time was calculated in comparison to untreated (Normal saline) and standard drug (artemisinin) treated groups. Differences in survival time between treated groups and untreated animals were analysed by Log-rank (Mantel-Cox) test using GraphPad Prism 5 and differences considered significant if P <0.005. Observations concerning adverse effects due to the compounds were recorded.

[3] = fluoroquinolones in clinical use, reported values, read-out: reported IC50 against 3D7 strain of P. falciparum in vitro
[4] = artemisinin (A) : drug B ratio 1:4
[5] = artemisinin (A) : drug B ratio 2:3
[6] = artemisinin (A) : drug B ratio 3:2
[7] = artemisinin (A) : drug B ratio 4:1
[8] = ratio A:B 1:4, combined with artemisinin (drug A)
[9] = ratio A:B 2:3, combined with artemisinin (drug A)
[10] = ratio A:B 3:2, combined with artemisinin (drug A)
[11] = ratio A:B 4:1, combined with artemisinin (drug A)
[12] = P. falciparum 3D7, in vitro, read-out: IC50 (equivalent in μM)

Structure (SMILES)	IC50 [1, 3] [µM]	interaction (class from Σ FICs) [2, 4]	Σ FICs [2, 4]	interaction (class from Σ FICs) [2, 5]	Σ FICs [2, 5]	interaction (class from Σ FICs) [2, 6]	Σ FICs [2, 6]	interaction (class from Σ FICs) [2, 7]	Σ FICs [2, 7]	antiplasmodial interaction with artemisinin (in words) [2]	Drug B Mean FIC50 ± SE ([2]; ratio A:B 0:5, drug B alone)	Drug B Mean FIC50 ± SE [2, 8]	Drug B Mean FIC50 ± SE [2, 9]	Drug B Mean FIC50 ± SE [2, 10]	Drug B Mean FIC50 ± SE [2, 11]	Therapeutic Index (TI) = LD50/ED50 (BALB/c mice)	IC50 (host cell) [µM]	Mean ED50 ± SE (Plasmodium berghei ANKA)	IC50 (inhibited the parasite multiplication rate to 50%) ± SE ([1]; P. falciparum 3D7, in vitro) [µg/mL]	IC50 [1, 12] [µM]	also measured
CCn1cc(C(=O)O)c(=O)c2cc(F)c(N3CCNCC3)cc21 [Norfloxacin, norfloxacin, reference compound]	53.9	SYN (ƩFIC <1 represents synergism)	0.74	ADD (ƩFIC > = 1 and <2 represents additive interaction)	1.53	SYN (ƩFIC <1 represents synergism)	0.81	ADD (ƩFIC > = 1 and <2 represents additive interaction)	1.36	synergistic interaction in two combinations, while additive in the remaining two	0.98 ± 0.04	0.60 ± 0.02	0.87 ± 0.03	0.52 ± 0.04	0.45 ± 0.02						Mean ƩFIC ± SD [2]: 1.11 ± 0.394
CC1COc2c(N3CCN(C)CC3)c(F)cc3c(=O)c(C(=O)O)cn1c23 (stereo not drawn) [ofloxacin, reference compound]	152																				
CCOC(=O)c1cn(CC#N)c2cc(Cl)c(F)cc2c1=O [Compound 10]		SYN (ƩFIC <1 represents synergism)	0.58	ADD (ƩFIC > = 1 and <2 represents additive interaction)	1.01	SYN (ƩFIC <1 represents synergism)	0.80	SYN (ƩFIC <1 represents synergism)	0.76	highly synergistic interactions; also recorded: synergistic antiplasmodial interaction in three of the four fixed-ratio combinations evaluated and additive in the remaining one	0.93 ± 0.04	0.41 ± 0.03	0.53 ± 0.03	0.22 ± 0.02	0.15 ± 0.02	346.32	143	2.31 mg/kg BW and 2.31 ± 0.19 mg/kg BW	2.56 ± 0.30 (≈ 8.29 µM)	8.69	Mean ƩFIC ± SD [2]: 0.788 ± 0.177
NC1CCN(c2c(F)cc3c(=O)c(C(=O)O)cn(C4CC4)c3c2Cl)C1 (stereo not drawn) [clinafloxacin, reference compound]	37.5																				
CCOC(=O)c1cn(Cc2cccc(Cl)c2)c2cc(Cl)c(F)cc2c1=O [Compound 18]		SYN (ƩFIC <1 represents synergism)	0.55	ADD (ƩFIC > = 1 and <2 represents additive interaction)	1.15	ADD (ƩFIC > = 1 and <2 represents additive interaction)	1.02	SYN (ƩFIC <1 represents synergism)	0.73	synergistic in two combinations, while additive in the other two	0.97 ± 0.08	0.33 ± 0.02	0.66 ± 0.03	0.47 ± 0.03	0.16 ± 0.01	307.69	129	2.60 mg/kg BW and 2.60 ± 0.18 mg/kg BW	2.73 ± 0.23 (≈ 6.92 µM)	6.93	
CCOC(=O)c1cn(Cc2c[nH]nn2)c2cc(Cl)c(F)cc2c1=O [Compound 12]		SYN (ƩFIC <1 represents synergism)	0.56	ADD (ƩFIC > = 1 and <2 represents additive interaction)	1.27	SYN (ƩFIC <1 represents synergism)	0.83	SYN (ƩFIC <1 represents synergism)	0.78	highly synergistic interactions	1.11 ± 0.08	0.32 ± 0.01	0.77 ± 0.03	0.23 ± 0.02	0.15 ± 0.003	258.90	171	3.09 mg/kg BW and 3.09 ± 0.22 mg/kg BW	1.33 ± 0.67 (≈ 3.79 µM)	3.79	antiplasmodial interaction with artemisinin (in words) ([2]; listed as compound 12): synergistic interaction in three combinations and additive in one
CCn1cc(C(=O)O)c(=O)c2cc(F)c(N3CCNCC3)nc21 [enoxacin, reference compound]	121																				
